Laboratory results taken from patent US9701676B2, “Pro-neurogenic compounds” (Board of Regents of The University of Texas System, priority 2012, dated 2017).

What follows are compounds tested on proliferating neural precursor cells in the hippocampus (subgranular layer of the dentate gyrus) (assay: standard in vivo hippocampal neurogenesis assay (BrdU labelling, week-long intracranial mini-pump infusion)). Conditions: 10 μM concentration, seven days of infusion at 0.5 μL/hour, daily IP BrdU; four 12 week old adult male C57/B6 mice; vehicle 14.5.
Design: species or system mouse (C57/B6)
Method: Compounds were administered at a concentration of 10 μM for each molecule. After seven days of infusion at a constant rate of 0.5 μL/hour, a total of 84 μL of volume will have left the pump (0.00084 μMoles) and entered the cerebrospinal fluid. The average volume of a brain from a 12 week old male, C57/B6 mouse in the study is 500 mm^3. […] Under these conditions, at the end of one week of infusion each compound would be present at 1.7 μMolar concentration. Since the actual amount of chemical compound in the brain is likely to be only a fraction of this predicted level, it is reasonable to estimate that compounds were administered at mid to low-nanomolar concentrations.
During compound infusion, animals were intraperitoneally (IP) injected daily with the thymidine analog, bromodeoxyuridine (BrdU), as a means of scoring the birth and survival of proliferating neural precursor cells in the hippocampus. Because both social interaction and voluntary exercise are known to stimulate hippocampal neurogenesis, mice were housed individually without access to running wheels throughout the screening period. Following the week-long period of compound administration, animals were perfused and sacrificed. Dissected brain tissue was fixed, embedded, sectioned, stained with antibodies to BrdU, and evaluated by light microcopy as a means of quantifying neurogenesis and survival of newborn neural precursor cells localized to the subgranular layer of the dentate gyms on the brain hemisphere contralateral to the side of mini-pump cannulation. Every fifth section throughout the entire rostral-caudal extent of the hippocampus was analyzed, and the total number of BrdU+ cells was normalized against the measured volume of the dentate gyms.
Intracranial infusions of either fibroblast growth factor 2 (FGF-2) or artificial cerebral spinal fluid (aCSF) vehicle via the same, week-long protocol were employed as positive and negative controls.
Compounds were evaluated for pro-neurogenic efficacy/neuroprotection in a standard in vivo hippocampal neurogenesis assay at 10 μM concentration in four 12 week old adult male C57/B16 mice.
With Cc1c(C)c2c(c(C)c1O)CC[C@@](C)(CCC[C@H](C)CCC[C@H](C)CCCC(C)C)O2 [P7C3-S267, (+)-a-tocopherol, reference compound] the “(×10^−06) BrdU+ cells/mm^3 dentate gyrus” value was 21.4 (×10^−06) BrdU+ cells/mm^3. For COc1cccc(NCC(O)CN2c3ccccc3CCc3ccccc32)c1 (centres unmarked) [P7C3-S158, 1-(10,11-dihydro-5H-dibenzo[b,f]azepin-5-yl)-3-((3-methoxyphenyl)amino)propan-2-ol], the “(×10^−06) BrdU+ cells/mm^3 dentate gyrus” value was 25 (×10^−06) BrdU+ cells/mm^3. In the case of N#Cc1[nH]c2ccccc2c1N [P7C3-S268, 3-amino-1H-indole-2-carbonitrile], the “(×10^−06) BrdU+ cells/mm^3 dentate gyrus” value is reported as 32.1 (×10^−06) BrdU+ cells/mm^3. In the case of COc1cccc(NCC(O)CN2c3ccc(Br)cc3CCc3cc(Br)ccc32)c1 (centres unmarked) [P7C3-S76], the “(×10^−06) BrdU+ cells/mm^3 dentate gyrus” value is reported as 28.3 (×10^−06) BrdU+ cells/mm^3. In the case of CN(C)c1nc(O)c2[nH]c3ccc(Br)cc3c2n1 [P7C3-S270, 8-bromo-2-(dimethylamino)-5H-pyrimido[5,4-b]indol-4-ol], the “(×10^−06) BrdU+ cells/mm^3 dentate gyrus” value is reported as 28 (×10^−06) BrdU+ cells/mm^3. With OC(CNc1cccc2ccccc12)Cn1c(-c2ccccc2)cc2ccccc21 (centres unmarked) [P7C3-S185, 1-(naphthalen-1-ylamino)-3-(2-phenyl-1H-indol-1-yl)propan-2-ol] the “(×10^−06) BrdU+ cells/mm^3 dentate gyrus” value was 25.1 (×10^−06) BrdU+ cells/mm^3. For N#Cc1ccc2c(c1)c1cc(Br)ccc1n2CC(=O)O [P7C3-S224, 2-(3-bromo-6-cyano-9H-carbazol-9-yl)acetic acid], the “(×10^−06) BrdU+ cells/mm^3 dentate gyrus” value was 20.2 (×10^−06) BrdU+ cells/mm^3. COc1cccc(N(CC(F)Cn2c3ccc(Br)cc3c3cc(Br)ccc32)S(=O)(=O)c2ccccc2C(F)(F)F)c1 (centres unmarked) [P7C3-S257, N-(3-(3,6-dibromo-9H-carbazol-9-yl)-2-fluoropropyl)-N-(3-methoxyphenyl)-2-(trifluoromethyl)benzenesulfonamide] was tested, and the “(×10^−06) BrdU+ cells/mm^3 dentate gyrus” value was 29.4 (×10^−06) BrdU+ cells/mm^3. O=C(Cn1c2ccc(Br)cc2c2cc(Br)ccc21)NO [P7C3-S231, 2-(3,6-dibromo-9H-carbazol-9-yl)-N-hydroxyacetamide] was tested, and the “(×10^−06) BrdU+ cells/mm^3 dentate gyrus” value was 26.1 (×10^−06) BrdU+ cells/mm^3. For CCC(C)N(C)C(=O)c1cc2ccccc2c(-c2ccccc2Cl)n1 (centres unmarked) [P7C3-S200, PK 11195, reference compound], the “(×10^−06) BrdU+ cells/mm^3 dentate gyrus” value was 22.1 (×10^−06) BrdU+ cells/mm^3. For O=C(Cn1c2ccc(Br)cc2c2cc(Br)ccc21)NS(=O)(=O)c1ccccc1 [P7C3-S230, 2-(3,6-dibromo-9H-carbazol-9-yl)-N-(phenylsulfonyl)acetamide], the “(×10^−06) BrdU+ cells/mm^3 dentate gyrus” value was 30.5 (×10^−06) BrdU+ cells/mm^3. CN1C(=O)CN=C(c2ccc(Cl)cc2)c2cc(Cl)ccc21 [P7C3-S203, 4′-chlorodiazepam, reference compound] was tested, and the “(×10^−06) BrdU+ cells/mm^3 dentate gyrus” value was 21.5 (×10^−06) BrdU+ cells/mm^3. With NCC(O)CN1c2ccccc2CCc2ccccc21 (centres unmarked) [P7C3-S140, 1-amino-3-(10,11-dihydro-5H-dibenzo[b,f]azepin-5-yl)propan-2-ol] the “(×10^−06) BrdU+ cells/mm^3 dentate gyrus” value was 23.4 (×10^−06) BrdU+ cells/mm^3. In the case of O=c1[nH]c(=O)c2[nH]c3ccc(Br)cc3c2[nH]1 [P7C3-S269, 8-bromo-1H-pyrimido[5,4-b]indole-2,4(3H, 5H)-dione], the “(×10^−06) BrdU+ cells/mm^3 dentate gyrus” value is reported as 35.4 (×10^−06) BrdU+ cells/mm^3. In the case of COc1cccc(N(CC(O)Cn2c3ccc(Br)cc3c3cc(Br)ccc32)S(=O)(=O)c2ccccc2C(F)(F)F)c1 (centres unmarked) [P7C3-S253, N-(3-(3,6-dibromo-9H-carbazol-9-yl)-2-hydroxypropyl)-N-(3-methoxyphenyl)-2-(trifluoromethyl)benzenesulfonamide], the “(×10^−06) BrdU+ cells/mm^3 dentate gyrus” value is reported as 28.5 (×10^−06) BrdU+ cells/mm^3. For NC(=O)c1ccc2c(c1)c1cc(Br)ccc1n2CC(=O)O [P7C3-S238, 2-(3-bromo-6-carbamoyl-9H-carbazol-9-yl)acetic acid], the “(×10^−06) BrdU+ cells/mm^3 dentate gyrus” value was 18.8 (×10^−06) BrdU+ cells/mm^3. OC(COc1ccccc1)CN1c2ccccc2CCc2ccccc21 (centres unmarked) [P7C3-S135, 1-(10,11-dihydro-5H-dibenzo[b,f]azepin-5-yl)-3-phenoxypropan-2-ol] was tested, and the “(×10^−06) BrdU+ cells/mm^3 dentate gyrus” value was 14.2 (×10^−06) BrdU+ cells/mm^3. With “FGF-2: fibroblast growth factor 2, intracranial infusion employed as positive control” the “(×10^−06) BrdU+ cells/mm^3 dentate gyrus” value was 28.4 (×10^−06) BrdU+ cells/mm^3. For OC(CN1c2ccccc2CCc2ccccc21)Cn1c2ccccc2c2ccccc21 (centres unmarked) [P7C3-S133, 1-(9H-carbazol-9-yl)-3-(10,11-dihydro-5H-dibenzo[b,f]azepin-5-yl)propan-2-ol], the “(×10^−06) BrdU+ cells/mm^3 dentate gyrus” value was 20.2 (×10^−06) BrdU+ cells/mm^3. For O=S(=O)(NCC(O)Cn1c2ccc(Br)cc2c2cc(Br)ccc21)C(F)(F)F (centres unmarked) [P7C3-S264, N-(3-(3,6-dibromo-9H-carbazol-9-yl)-2-hydroxypropyl)-1,1,1-trifluoromethanesulfonamide], the “(×10^−06) BrdU+ cells/mm^3 dentate gyrus” value was 20.6 (×10^−06) BrdU+ cells/mm^3. With O=C(O)Cn1c2ccc(Br)cc2c2cc(C(=O)O)ncc21 [P7C3-S227, 6-bromo-9-(carboxymethyl)-9H-pyrido[3,4-b]indole-3-carboxylic acid] the “(×10^−06) BrdU+ cells/mm^3 dentate gyrus” value was 25.8 (×10^−06) BrdU+ cells/mm^3. In the case of [N-]=[N+]=NCC(F)Cn1c2ccc(Br)cc2c2cc(Br)ccc21 (centres unmarked) [P7C3-S189, 9-(3-azido-2-fluoropropyl)-3,6-dibromo-9H-carbazole], the “(×10^−06) BrdU+ cells/mm^3 dentate gyrus” value is reported as 13.7 (×10^−06) BrdU+ cells/mm^3. In the case of CCOC(=O)c1ncc2[nH]c3ccccc3c2n1 [P7C3-S262, ethyl 5H-pyrimido[5,4-b]indole-2-carboxylate], the “(×10^−06) BrdU+ cells/mm^3 dentate gyrus” value is reported as 18 (×10^−06) BrdU+ cells/mm^3. In the case of CC(C)CCC[C@@H](C)[C@H]1CC[C@H]2[C@@H]3CCC4=CC(=NO)CC[C@]4(C)[C@H]3CC[C@]12C [P7C3-S266, Cholest-4-en-3-one, oxime, reference compound], the “(×10^−06) BrdU+ cells/mm^3 dentate gyrus” value is reported as 42.3 (×10^−06) BrdU+ cells/mm^3. With COc1ccc(S(=O)(=O)N(CC(O)Cn2c3ccc(Br)cc3c3cc(Br)ccc32)c2cccc(OC)c2)cc1 (centres unmarked) [P7C3-S254, N-(3-(3,6-dibromo-9H-carbazol-9-yl)-2-hydroxypropyl)-4-methoxy-N-(3-methoxyphenyl)benzenesulfonamide] the “(×10^−06) BrdU+ cells/mm^3 dentate gyrus” value was 25.5 (×10^−06) BrdU+ cells/mm^3. In the case of CS(=O)(=O)NC(=O)Cn1c2ccc(Br)cc2c2cc(Br)ccc21 [P7C3-S232, 2-(3,6-dibromo-9H-carbazol-9-yl)-N-(methylsulfonyl)acetamide], the “(×10^−06) BrdU+ cells/mm^3 dentate gyrus” value is reported as 16.8 (×10^−06) BrdU+ cells/mm^3. In the case of CCOC(=O)c1ncc2c(n1)c1ccccc1n2S(=O)(=O)c1ccc(C)cc1 [P7C3-S246, ethyl 5-tosyl-5H-pyrimido[5,4-b]indole-2-carboxylate], the “(×10^−06) BrdU+ cells/mm^3 dentate gyrus” value is reported as 29 (×10^−06) BrdU+ cells/mm^3. With OC(CN1c2ccccc2CCc2ccccc21)CN1c2ccccc2CCc2ccccc21 [P7C3-S170, 1,3-bis(10,11-dihydro-5H-dibenzo[b,f]azepin-5-yl)propan-2-ol] the “(×10^−06) BrdU+ cells/mm^3 dentate gyrus” value was 22.4 (×10^−06) BrdU+ cells/mm^3. In the case of c1ccc2c(c1)CCc1ccccc1N2 [P7C3-S212, iminodibenzyl, reference compound], the “(×10^−06) BrdU+ cells/mm^3 dentate gyrus” value is reported as 20.5 (×10^−06) BrdU+ cells/mm^3. In the case of COc1ccc2[nH]c(C#N)c(N)c2c1 [P7C3-S276, 3-amino-5-methoxy-1H-indole-2-carbonitrile], the “(×10^−06) BrdU+ cells/mm^3 dentate gyrus” value is reported as 29.3 (×10^−06) BrdU+ cells/mm^3. Cc1ccc2[nH]c3ccc(C)cc3c2c1 [P7C3-S237, 3,6-dimethyl-9H-carbazole] was tested, and the “(×10^−06) BrdU+ cells/mm^3 dentate gyrus” value was 23.5 (×10^−06) BrdU+ cells/mm^3. For O=C(NCC(O)Cn1c2ccc(Br)cc2c2cc(Br)ccc21)Nc1ccccc1 (centres unmarked) [P7C3-S277, 1-(3-(3,6-dibromo-9H-carbazol-9-yl)-2-hydroxypropyl)-3-phenylurea], the “(×10^−06) BrdU+ cells/mm^3 dentate gyrus” value was 20.3 (×10^−06) BrdU+ cells/mm^3. For COc1ccc2[nH]cc(CCNC(C)=O)c2c1 [P7C3-S193, Melatonin, reference compound], the “(×10^−06) BrdU+ cells/mm^3 dentate gyrus” value was 15.6 (×10^−06) BrdU+ cells/mm^3. With CCCCCCN(CCCCCC)C(=O)Cc1c(-c2ccc(F)cc2)[nH]c2ccccc12 [P7C3-S201, N,N-Dihexyl-2-(4-fluorophenyl)indole-3-acetamide, reference compound] the “(×10^−06) BrdU+ cells/mm^3 dentate gyrus” value was 24.8 (×10^−06) BrdU+ cells/mm^3. With CNCC(F)CN1c2ccccc2CCc2ccccc21 (centres unmarked) [P7C3-S152, 3-(10,11-dihydro-5H-dibenzo[b,f]azepin-5-yl)-2-fluoro-N-methylpropan-1-amine] the “(×10^−06) BrdU+ cells/mm^3 dentate gyrus” value was 26.8 (×10^−06) BrdU+ cells/mm^3.
